# In US9670157B2, “Benzylamine derivatives” (KALVISTA PHARMACEUTICALS LIMITED, priority 2013, dated 2017):
# Legend:
# [1] = biological target: Human plasma kallikrein (Homo sapiens (Human), UniProt P03952); assay: Determination of the IC50 for Plasma Kallikrein; format: biochemical; settings: 37° C., fluorogenic substrate H-DPro-Phe-Arg-AFC; read-out: IC50 (human PKal)
# Method: Human plasma kallikrein (Protogen) was incubated at 37° C. with the fluorogenic substrate H-DPro-Phe-Arg-AFC and various concentrations of the test compound. Residual enzyme activity (initial rate of reaction) was determined by measuring the change in optical absorbance at 410 nm and the IC50 value for the test compound was determined.
# [2] = biological target: Human KLK1 (Homo sapiens (Human), UniProt P06870); assay: Determination of the IC50 for KLK1; format: biochemical; settings: 37° C., fluorogenic substrate H-DVal-Leu-Arg-AFC
# Method in brief: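 KLK1 inhibition was measured in vitro following standard published methods. Human KLK1 (Callbiochem) was incubated at 37° C. with the fluorogenic substrate H-DVal-Leu-Arg-AFC in the presence of a range of test compound concentrations. Residual enzyme activity, taken as the initial reaction rate, was followed by the change in optical absorbance at 410 nm, and IC50 values were derived.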
# [3] = biological target: thrombin (Homo sapiens (Human), UniProt P00734); assay: Determination of Enzyme Selectivity: thrombin; format: biochemical; settings: substrate at Km concentration
# Method: (§1) Human serine protease enzymes plasmin, thrombin, trypsin, Factor Xa and Factor XIIa were assayed for enzymatic activity using an appropriate fluorogenic substrate. Protease activity was measured by monitoring the accumulation of liberated fluorescence from the substrate over 5 minutes. The linear rate of fluorescence increase per minute was expressed as percentage (%) activity. The Km for the cleavage of each substrate was determined by standard transformation of the Michaelis-Menten equation.
# [4] = biological target: trypsin; assay: Determination of Enzyme Selectivity: trypsin; format: biochemical, Human; settings: substrate at Km concentration
# Method: as §1
# [5] = biological target: plasmin (Homo sapiens (Human), UniProt P00747); assay: Determination of Enzyme Selectivity: plasmin; format: biochemical; settings: substrate at Km concentration
# Method: as §1
# [6] = biological target: Factor XIIa (Homo sapiens (Human), UniProt P00748); assay: Determination of Enzyme Selectivity: Factor XIIa; format: biochemical; settings: substrate at Km concentration
# Method: as §1
# [7] = Pharmacokinetics following a single oral dose in rats; format: in vivo; settings: rat, nominal 10 mg/kg, male Sprague-Dawley rats, plasma
# Method: Pharmacokinetic studies of selected examples were performed to assess the pharmacokinetics following a single oral dose in male Sprague-Dawley rats. Typically, either two or three rats were given a single po dose of 5 mL/kg of a nominal 2 mg/mL (10 mg/kg) composition of test compound in either 5% cremophor:5% ethanol:90% phosphate buffered saline or 20% Labrasol:80% water. Following dosing, blood samples were collected over a period of 8 hours. Typical sample times include 5, 15 and 30 minutes then 1, 2, 4, 6 and 8 hours. Following collection, blood samples were centrifuged and the plasma fraction analysed for concentration of test compound by LCMS.
# Sequence of Factor XIIa (P00748 373-615): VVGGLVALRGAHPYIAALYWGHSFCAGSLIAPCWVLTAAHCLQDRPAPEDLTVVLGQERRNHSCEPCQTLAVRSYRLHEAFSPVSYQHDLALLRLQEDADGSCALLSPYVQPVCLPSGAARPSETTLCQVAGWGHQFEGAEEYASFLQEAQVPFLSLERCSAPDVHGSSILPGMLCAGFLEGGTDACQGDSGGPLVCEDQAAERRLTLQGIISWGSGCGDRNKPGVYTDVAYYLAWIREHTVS
# Sequence of Human plasma kallikrein (P03952 391-638): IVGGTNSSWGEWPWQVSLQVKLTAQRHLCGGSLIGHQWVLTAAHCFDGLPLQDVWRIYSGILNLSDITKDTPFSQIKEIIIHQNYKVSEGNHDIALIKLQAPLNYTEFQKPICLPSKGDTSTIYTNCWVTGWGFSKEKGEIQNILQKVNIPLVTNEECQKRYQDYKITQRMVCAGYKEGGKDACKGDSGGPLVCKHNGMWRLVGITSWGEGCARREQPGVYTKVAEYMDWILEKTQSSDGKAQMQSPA
# Sequence of Human plasma kallikrein (P03952 20-390 partner): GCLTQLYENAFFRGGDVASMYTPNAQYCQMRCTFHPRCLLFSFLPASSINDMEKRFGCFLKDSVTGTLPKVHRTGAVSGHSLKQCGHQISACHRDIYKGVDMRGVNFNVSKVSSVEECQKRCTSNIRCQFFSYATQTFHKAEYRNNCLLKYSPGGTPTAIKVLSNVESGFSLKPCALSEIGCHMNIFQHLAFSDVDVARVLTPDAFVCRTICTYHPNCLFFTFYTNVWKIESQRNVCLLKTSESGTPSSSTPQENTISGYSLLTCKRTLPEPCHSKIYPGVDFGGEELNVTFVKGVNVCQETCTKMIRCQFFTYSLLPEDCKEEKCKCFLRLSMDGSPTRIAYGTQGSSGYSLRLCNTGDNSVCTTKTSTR
# Sequence of plasmin (P00747 581-810): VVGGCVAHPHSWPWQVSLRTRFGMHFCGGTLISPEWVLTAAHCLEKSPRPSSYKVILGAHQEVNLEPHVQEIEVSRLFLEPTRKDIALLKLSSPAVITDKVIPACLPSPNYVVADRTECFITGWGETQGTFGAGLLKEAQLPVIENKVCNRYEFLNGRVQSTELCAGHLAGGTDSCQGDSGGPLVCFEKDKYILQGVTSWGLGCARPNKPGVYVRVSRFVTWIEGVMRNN
# Sequence of plasmin (P00747 97-580 partner): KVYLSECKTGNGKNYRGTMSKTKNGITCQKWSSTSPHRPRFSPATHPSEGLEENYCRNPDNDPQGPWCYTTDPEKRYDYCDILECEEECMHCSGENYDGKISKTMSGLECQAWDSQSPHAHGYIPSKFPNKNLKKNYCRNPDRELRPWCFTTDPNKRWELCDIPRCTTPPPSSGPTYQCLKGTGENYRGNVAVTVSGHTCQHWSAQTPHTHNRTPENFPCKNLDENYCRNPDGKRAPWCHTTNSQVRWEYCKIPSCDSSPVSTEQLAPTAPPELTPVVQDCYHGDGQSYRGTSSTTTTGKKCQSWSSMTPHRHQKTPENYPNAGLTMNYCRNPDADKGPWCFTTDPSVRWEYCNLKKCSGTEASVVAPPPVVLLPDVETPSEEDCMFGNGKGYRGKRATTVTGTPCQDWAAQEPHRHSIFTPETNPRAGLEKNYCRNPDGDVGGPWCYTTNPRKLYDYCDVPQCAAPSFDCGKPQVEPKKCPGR
# Sequence of Human KLK1 (P06870 25-262): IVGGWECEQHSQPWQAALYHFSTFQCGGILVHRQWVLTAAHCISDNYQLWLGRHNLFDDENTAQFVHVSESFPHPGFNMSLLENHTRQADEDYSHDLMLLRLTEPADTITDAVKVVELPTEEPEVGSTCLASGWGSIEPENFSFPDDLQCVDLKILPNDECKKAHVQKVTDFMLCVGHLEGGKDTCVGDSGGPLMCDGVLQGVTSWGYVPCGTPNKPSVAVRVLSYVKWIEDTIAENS
Structure (SMILES),IC50 [1],IC50 [2],IC50 [3],IC50 [4],IC50 [5],IC50 [6],Cmax [7],Tmax [7]
"Cc1cc(C(=O)NCc2ccc(CN)cc2)c(C)n1Cc1csc(-c2ccccc2)n1 [Example 1, 2,5-Dimethyl-1-(2-phenyl-thiazol-4-ylmethyl)-1H-pyrrole-3-carboxylic acid 4-aminomethyl-benzylamide]",0.063 µM,> 10 µM,> 40 µM,> 40 µM,> 40 µM,> 10 µM,81 ng/mL,4.67 h
"Cc1cc(CN)ccc1CNC(=O)c1cc(C)n(Cc2csc(-c3ccccc3)n2)c1C [Example 2, 2,5-Dimethyl-1-(2-phenyl-thiazol-4-ylmethyl)-1H-pyrrole-3-carboxylic acid 4-aminomethyl-2-methyl-benzylamide]",0.015 µM,> 10 µM,> 40 µM,> 40 µM,24.8 µM,> 10 µM,59 ng/mL,5 h

# Continued, values first:
IC50 [1],IC50 [2],IC50 [3],IC50 [4],IC50 [5],IC50 [6],Cmax [7],Tmax [7],Structure (SMILES)
0.452 µM,> 10 µM,> 40 µM,26.6 µM,27.2 µM,> 8.51 µM,,,"NCc1ccc(CNC(=O)c2cn(Cc3csc(-c4ccccc4)n3)nc2C(F)(F)F)cc1 [Example 83, 1-(2-Phenyl-thiazol-4-ylmethyl)-3-trifluoromethyl-1H-pyrazole-4-carboxylic acid 4-aminomethyl-benzylamide]"
8.38 µM,> 10 µM,> 40 µM,> 40 µM,> 40 µM,> 10 µM,,,"NCc1ccc(CNC(=O)c2cn(Cc3ccccc3)nc2-c2ccccc2)cc1 [Example 84, 1-Benzyl-3-phenyl-1H-pyrazole-4-carboxylic acid 4-aminomethyl-benzylamide]"
0.004 µM,6.31 µM,,,,> 10 µM,67 ng/mL,5 h,"Cc1cnn(Cc2ccc(Cn3c(C)cc(C(=O)NCc4c(C)cc(CN)cc4C)c3C)cc2)c1 [Example 101, 2,5-Dimethyl-1-[4-(4-methyl-pyrazol-1-ylmethyl)-benzyl]-1H-pyrrole-3-carboxylic acid 4-aminomethyl-2,6-dimethyl-benzylamide]"
0.003 µM,0.657 µM,,,,> 40 µM,,,"Cc1ccc2cc(Cn3ncc(C(=O)NCc4c(C)cc(CN)cc4C)c3C)ccc2n1 [Example 125, 5-Methyl-1-(2-methyl-quinolin-6-ylmethyl)-1H-pyrazole-4-carboxylic acid 4-aminomethyl-2,6-dimethyl-benzylamide]"
